Test results from patent publication US5847148A, “Thiadiazole derivatives useful for the treatment of diseases related to connective tissue degradation” (Pharmacia & Upjohn Company, priority 1997, dated 1998).

What follows are compounds tested against Stromelysin (Homo sapiens, UniProt P08254) (assay: MMP (stromelysin) inhibition, particle concentration fluorescence assay). Conditions: in vitro; fluorescein/biotin substrate; MMP buffer pH 7.5; room temperature; 15 minutes preincubation, 1-3 hours; read-out: Stromelysin Ki (MMP Inhibition Constants).
Sequence of Stromelysin (P08254 100-477): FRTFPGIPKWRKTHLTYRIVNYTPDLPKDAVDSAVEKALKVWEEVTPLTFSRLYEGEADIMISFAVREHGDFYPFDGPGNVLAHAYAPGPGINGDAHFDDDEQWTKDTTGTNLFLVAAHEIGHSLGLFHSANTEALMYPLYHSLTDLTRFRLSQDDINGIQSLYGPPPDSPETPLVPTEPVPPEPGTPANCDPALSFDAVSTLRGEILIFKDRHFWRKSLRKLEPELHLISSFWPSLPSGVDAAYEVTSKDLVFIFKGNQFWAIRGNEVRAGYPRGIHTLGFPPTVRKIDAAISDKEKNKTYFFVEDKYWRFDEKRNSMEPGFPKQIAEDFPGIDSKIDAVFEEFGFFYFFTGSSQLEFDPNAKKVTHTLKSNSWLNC
Type: biochemical
Protocol: Inhibitory activity is evaluated in one or more of the MMP enzymes (stromelysin, gelatinase, and collagenase) in vitro using particle concentration fluorescence assay. An inhibitor binds to MMP enzymes which prevents the degradation of a substrate by stromelysin, gelatinase, or collagenase. The substrate has attached to it a fluorescein and a biotin moiety. The intact substrate then binds to an avidin-coated particle via the biotin moiety. Once the particle is washed and dried, a fluorescent signal is generated since the fluorescent group is attached to the particle. Without an inhibitor present, the substrate is degraded by MMP enzymes and the fluorescein group is removed, therefore, no fluorescent signal can be detected. Testing compounds are dissolved in DMSO to the desired concentration, then the solutions are diluted to 1:5 with MMP buffer (50 mM Tris-HCl, pH 7.5; 150 mM NaCl; 0.02% NaN3). Serial two-fold dilutions of each compound are prepared. A concentrated, activated enzyme solution is transferred into each plate of the testing compounds, and the mixture is incubated at room temperature for 15 minutes. […] At this point, the substrate mixture is mixed with 0.1% avidin-coated polystyrene particles. After 15 minutes, the fluorescence values are measured following filtration and washing of the beads. Ki values are then calculated.

Ki [µM]	SMILES
0.76	CNC(=O)[C@@H](NC(=O)Nc1n[nH]c(=S)s1)[C@@H](C)OCc1ccccc1 [Example 66, 2-[[[(4,5-Dihydro-5-thioxo-1,3,4-thiadiazol-2-yl)amino]carbonyl]amino]-N-methyl-3-(phenylmethoxy)-(2S)-butanamide]
0.67	CNC(=O)[C@@H](NC(=O)Nc1n[nH]c(=S)s1)[C@@H](C)OC(C)(C)C [Example 75, 2-[[[(4,5-Dihydro-5-thioxo-1,3,4-thiadiazol-2-yl)amino]carbonyl]amino]-3-(1,1-dimethylethoxy)-N-methyl-(S)-butanamide]

SMILES	Ki [µM]
COC(=O)[C@H](COC(C)(C)C)NC(=O)Nc1n[nH]c(=S)s1 [Example 67, N-[[(4,5-Dihydro-5-thioxo-1,3,4-thiadiazol-2-yl)amino]carbonyl]-O-(1,1-dimethylethoxy)-L-serine methyl ester]	6.7
